# Assays:
# Format in all cases: cell-based, mouse
# primary keratinocytes = experiment: [3H]Glycerol uptake; details: 24 hours
# Description: Confluent primary keratinocytes were incubated for 30, 60, 90, 120, 300 or 600 seconds with SFKM containing 20 mM HEPES (for additional pH buffering), 1 μCi/mL [^3H]glycerol and 0.1% DMSO (control) or 100 nM PMA. Reactions were terminated by washing three times with ice-cold phosphate-buffered saline lacking divalent cations. The cells were subsequently solubilized in 0.3 M NaOH and aliquots of this extract subjected to liquid scintillation counting. Counts obtained from duplicate samples at each time point were averaged and graphed, and a linear equation was determined for each condition. Correlation coefficients obtained were typically 0.99 or greater (mean correlation coefficient for control was 0.992±0.002 and for PMA, 0.994±0.001). Slopes obtained from multiple experiments were averaged and analyzed statistically for significant differences between conditions.
# The linearity of glycerol uptake determined above allowed measurement of uptake at a single time point to determine the effects of other treatments on this process. Thus, confluent keratinocytes were preincubated for 30 minutes with 0.1% DMSO (control) or 100 nM PMA prior to measuring [^3H]glycerol uptake as above but at 5 minutes only. Similarly, near-confluent primary keratinocytes were incubated for 24 hours with SFKM containing various calcium concentrations prior to measurement of radiolabeled glycerol uptake for 5 minutes.
# Near-confluent keratinocyte cultures were incubated for 24 hours in SFKM (25 μM calcium) or SFKM containing 125 μM calcium (125 μM Ca^2+-SFKM) and the glycerol uptake assay performed as previously described in Zheng & Bollag (2003). Briefly, cells were incubated with SFKM containing 20 mM HEPES (for additional pH buffering) and 1 μCi/mL [^3H] glycerol for 5 minutes, since it has previously been shown that this time point is in the linear range of [^3H]glycerol uptake (Zheng & Bollag (2003). Reactions were terminated by rapidly washing three times with ice-cold phosphate-buffered saline lacking divalent cations (PBS-). Cells were then solubilized in 0.3 M NaOH and [^3H]glycerol uptake quantified by liquid scintillation spectroscopy.
# keratin 10 promoter = experiment: Co-transfection analysis, keratin 10 promoter-luciferase reporter; details: 1 mM calcium, 24 hours
# Description: The keratin 5 and keratin 10 promoter-luciferase constructs were provided by of Dr. Bogi Andersen (University of California, Irvine, Calif.); the involucrin promoter-luciferase construct was provided by Dr. Daniel Bikle (University of California, San Francisco, Calif.). Sub-confluent (approximately 30%) keratinocytes were transfected using TransIT-Keratinocyte according to the manufacturer's instructions. After 24 hours cells were refed with medium containing 25 μM (control) or 1 mM-Ca^2+ for an additional 24 hours. Luciferase activity was then measured using the Dual Luciferase Reporter Assay kit (Promega, Madison, Wis.) as directed by the manufacturer.
# keratinocytes = experiment: Release of radiolabel from [14C]glycerol-labeled lipids by bacterial PLD (headgroup position); details: 125 μM calcium pretreatment 24 hours, means±SEM
# Description: Keratinocytes pretreated for 24 hours with control (25 μM calcium) or 125 μM calcium-containing medium were exposed to 0.4-0.5 μCi/mL [^14C]glycerol for an additional 30 minutes. Lipids were extracted into chloroform/methanol as described above. Dried lipid extracts were then solubilized in phospho lipase buffer (100 mM Tris, pH 7.4, 6 mM MgCl2+0.1% Triton-X100) by extensive vortexing and a short incubation at 37° C. and approximately half of each extract was transferred into a clean tube. Distilled water (untreated) or 1 IU/mL (final concentration) of Streptomyces chromofuscus PLD (Sigma, St. Louis, Mo.) diluted in distilled water (PLD-treated) was then added to each of the lipid extract samples, which were incubated at 37° C. for 60 minutes. Released headgroups were then separated from phospholipids by extraction into the aqueous layer, essentially according to the method of Folch. […] A portion of the upper aqueous layer was then collected and quantified by liquid scintillation spectrometry. PLD-released radioactivity in the aqueous phase was calculated as the amount released in the PLD-treated sample minus the amount detected in the corresponding untreated sample. […] This lipid extract was then separated by thin-layer chromatography and PG and phosphatidic acid in the samples quantified as above.
compound,measurement,setting,value
[Ca+2] [calcium],glycerol uptake relative to control,primary keratinocytes; 500 μM calcium pretreatment,approximately equivalent to the control value
same,glycerol uptake relative to control,primary keratinocytes; 1 mM calcium pretreatment,slight but not significant inhibition
same,increase in glycerol uptake relative to the 25 μM calcium control,primary keratinocytes; pre-exposure to 125 μM calcium,56%
same,increase in glycerol uptake relative to the 25 μM calcium control,primary keratinocytes; pre-exposure to 250 μM calcium,41%
same,inhibition of keratin 10 expression (promoter activity),keratin 10 promoter,22%
same,radiolabel released into aqueous fraction by bacterial PLD from lipid extracts,keratinocytes; p<0.001,4.2±0.4 fold over the control level
same,radioactivity released by bacterial PLD from isolated PG,keratinocytes; p<0.01,3.3±0.5 fold over the control level

# — patent US8808715B1, “Methods and compositions for modulating keratinocyte function” (Georgia Regents Research Institute, Inc, priority 2004, dated 2014)
